Experimental data: ChEMBL document CHEMBL5518242, “Discovery and Optimization of Novel Nonbile Acid FXR Agonists as Preclinical Candidates for the Treatment of Inflammatory Bowel Disease” (J Med Chem, 2024)

Details: human, caco-2
Description: Permeability in human Caco-2 cells

permeability: Permeable
Compound: Cn1cc(C(=O)O)c2ccc(N3CCC(OCc4c(-c5c(Cl)cccc5Cl)noc4C4CC4)CC3)cc21 [TERN-101]
